Patent US20250346606A1, “CAMPTOTHECIN COMPOUND, PREPARATION METHOD THEREFOR, AND APPLICATION THEREOF” (SICHUAN KELUN-BIOTECH BIOPHARMACEUTICAL CO., LTD., priority 2021, published 2025)

Key:
Format in all cases: cell-based, Human
[1] = test system: NCI-N87 cells; assay: Inhibitory effect of compounds on NCI-N87 cell proliferation; conditions: Homo sapiens, NCI-N87, 72 h, read-out: IC50, inhibitory activity on NCI-N87 cell proliferation, NCI-N87 human gastric cancer cells, 72 h incubation, Cell Counting-Lite 2.0
How it was run: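 Adherent NCI-N87 cells were exposed to compound dilutions for 72 h. Viability measured by Cell Counting-Lite 2.0 luminescence, with inhibition calculated against vehicle and cell-free background RLU. IC50 from four-parameter fit.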

[2] = test system: SKOV-3 cells; assay: Inhibitory effect of compounds on SKOV-3 cell proliferation; conditions: Homo sapiens, SK-OV-3, 72 h, read-out: IC50, inhibitory activity on SKOV-3 cell proliferation
Description: (1) Cell plating: First, tumor cells SKOV-3 were cultured in corresponding medium, then digested with trypsin, centrifuged, resuspended, and counted, and the cells were adjusted to an appropriate concentration for plating.
(§1) Co-incubation of the compound of the present disclosure and tumor cells: after the cells adhered to the wall, the medium was removed, and the diluted bioactive molecule (the compound of the present disclosure) was added to the wells of the above plate, and incubated for 72 h.
(§2) In vitro cell viability detection: After the incubation, 50 μL of Cell Counting-Lite™ 2.0 reagent (Vazyme/Novazyme) was added to each well, shaken and mixed well in the dark, reacted for 10 minutes, and then the detection was carried out with a microplate reader (manufacturer: BMG, Model: PHERAStar-FS) for reading. The background RLU was obtained by using cell-free medium (with Cell Counting-Lite™), and the vehicle RLU was obtained by using cell-containing medium (with Cell Counting-Lite™). Cell inhibition rate=1−(sample RLU−background RLU)/(solvent RLU−background RLU)×100%. According to the four-parameter model fitting curve, the half maximal inhibitory concentration (IC50) of the compound was calculated, and the detection results were shown in Table 8.

[3] = test system: NCI-H358 cells; assay: Inhibitory effect of compounds on NCI-H358 cell proliferation; conditions: Homo sapiens, NCI-H358, 72 h, read-out: IC50, inhibitory activity on NCI-H358 cell proliferation, NCI-H358 human non-small cell lung cancer cells, 72 h incubation, Cell Counting-Lite 2.0
How it was run: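 Adherent NCI-H358 cells were exposed to compound for 72 h, then viability was read by luminescence (Cell Counting-Lite 2.0). Inhibition calculated from RLU relative to cell-free background and vehicle wells; IC50 from a four-parameter fit.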

[4] = test system: Hela cells; assay: Inhibitory effect of compounds on Hela cell proliferation; conditions: Homo sapiens, HeLa, 72 h, read-out: IC50, inhibitory activity on Hela cell proliferation
Description: (1) Cell plating: First, tumor cells Hela were cultured in corresponding medium, then digested with trypsin, centrifuged, resuspended, and counted, and the cells were adjusted to an appropriate concentration for plating.
as §1
as §2, with “14.” for “8.”

[5] = test system: HT29 cells; assay: Inhibitory effect of compounds on HT29 cell proliferation; conditions: Homo sapiens, HT-29, 72 h, read-out: IC50, inhibitory activity on HT29 cell proliferation
How it was run: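 Adherent HT29 cells incubated with diluted compounds for 72 h; viability read by luminescence (Cell Counting-Lite 2.0, 10 min). Inhibition calculated against cell-free background and vehicle-treated cells; IC50 from four-parameter curve fit.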

[6] = test system: HCC70 cells; assay: Inhibitory effect of compounds on HCC70 cell proliferation; conditions: Homo sapiens, HCC70, 72 h, read-out: IC50, inhibitory activity on HCC70 cell proliferation
Description: (1) Cell plating: First, tumor cells HCC70 were cultured in corresponding medium, then digested with trypsin, centrifuged, resuspended, and counted, and the cells were adjusted to an appropriate concentration for plating.
as §1
as §2, with “16.” for “8.”

[7] = test system: A549 cells; assay: Inhibitory effect of compounds on A549 cell proliferation; conditions: Homo sapiens, A549, 72 h, read-out: IC50, inhibitory activity on A549 cell proliferation
Description: (1) Cell plating: First, tumor cells A549 were cultured in the corresponding medium, then digested with trypsin, centrifuged and resuspended, and counted, and the cells were adjusted to an appropriate concentration for plating.
as §1
as §2, with “activity” for “viability”, “4.” for “8.”

Question: Which results are given for `CC[C@@]1(O)C(=O)OCc2c1cc1n(c2=O)Cc2c-1nc1cc(Cl)c(C)c3c1c2[C@@H](NC(=O)C1(O)CC1)CC3` [Example 7 (2-20-A), N-((1S,9S)-5-chloro-9-ethyl-9-hydroxy-4-methyl-10,13-dioxo-2,3,9,10,13,15-hexahydro-1H,12H-benzo[de]pyrano[3′,4′:6,7]indolizino[1,2-b]quinolin-1-yl)-1-hydroxycyclopropane-1-carboxamide]?
Answer: IC50 [1]: 4.54 nM; IC50 [2]: 6.79 nM; IC50 [3]: 18.6 nM; IC50 [4]: 11.2 nM; IC50 [5]: 1.29 nM; IC50 [6]: 105 nM; IC50 [7]: 8.14 nM
